Source: PubChem BioAssay AID330 (DTP/NCI, 2004)
Several values for one entry are separate records, joined by “and”; a condition that tells them apart may be missing. Equal entries are not always repeated. Inconclusive results and toxic doses are left out. Rule for the calls: active = survival T/C of 150% or more; inactive = T/C below 125% in these data.

Test system: P388 leukemia ip, CD2F1 mice, survival T/C
Assay: NCI In Vivo Anticancer Drug Screen. Data for tumor model P388 Leukemia (intraperitoneal) in CD2F1 (CDF1) mice
Details: endpoint: median survival time, higher = longer survival
Summary of the method: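 Mice carrying the transplanted tumor received test compound or vehicle. Survival was recorded in each group, and the value is the treated-group measurement divided by that of the vehicle-treated control group.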

[1] = dose: 50.0 mg/kg/injection, schedule: Q01DX009 (ip), vehicle: Klucel (hydroxypropylcellulose) (HPC)
[2] = dose: 100.0 mg/kg/injection, schedule: Q01DX009 (ip), vehicle: Klucel (hydroxypropylcellulose) (HPC)
[3] = dose: 200.0 mg/kg/injection, schedule: Q01DX009 (ip), vehicle: Klucel (hydroxypropylcellulose) (HPC)
[4] = dose: 50.0 mg/kg/injection, schedule: Q01DX009 (ip), vehicle: saline with Tween-80
[5] = dose: 100.0 mg/kg/injection, schedule: Q01DX009 (ip), vehicle: saline with Tween-80
[6] = dose: 200.0 mg/kg/injection, schedule: Q01DX009 (ip), vehicle: saline with Tween-80
[7] = dose: 400.0 mg/kg/injection, schedule: Q01DX009 (ip), vehicle: saline with Tween-80
[8] = dose: 50.0 mg/kg/injection, schedule: Q01DX005 (ip), vehicle: saline with Tween-80
[9] = dose: 100.0 mg/kg/injection, schedule: Q01DX005 (ip), vehicle: saline with Tween-80
[10] = dose: 200.0 mg/kg/injection, schedule: Q01DX005 (ip), vehicle: saline with Tween-80
[11] = dose: 50.0 mg/kg/injection, schedule: Q01DX005 (ip), vehicle: Klucel (hydroxypropylcellulose) (HPC)
[12] = dose: 100.0 mg/kg/injection, schedule: Q01DX005 (ip), vehicle: Klucel (hydroxypropylcellulose) (HPC)
[13] = dose: 60.0 mg/kg/injection, schedule: Q01DX005 (ip), vehicle: saline with Tween-80
[14] = dose: 15.0 mg/kg/injection, schedule: Q01DX005 (ip), vehicle: saline with Tween-80
[15] = dose: 30.0 mg/kg/injection, schedule: Q01DX005 (ip), vehicle: saline with Tween-80

Measured: T/C

Cc1c(C)c2ccccc2[nH]c1=O
inactive: [1] 101 % of control | [2] 104 % of control | [3] 113 % of control | dose: 400.0 mg/kg/injection, schedule: Q01DX009 (ip), vehicle: Klucel (hydroxypropylcellulose) (HPC) 100 % of control

COc1cc2c[n+](C)c3ccccc3c2cc1OC
inactive: dose: 12.5 mg/kg/injection, schedule: Q01DX009 (ip), vehicle: water 112 % of control and 115 % of control | dose: 25.0 mg/kg/injection, schedule: Q01DX009 (ip), vehicle: water 124 % of control | dose: 100.0 mg/kg/injection, schedule: Q01DX009 (ip), vehicle: water 105 % of control

CCOC(=O)c1cc(N)c(C(=O)OCC)cc1N
inactive: [4] 97 % of control | [5] 86 % of control and 96 % of control | [6] 96 % of control and 97 % of control | [7] 92 % of control and 96 % of control

C[Si](C)(C)/C=C1\OC=CC(c2ccccc2)O1 (centres undefined)
inactive: dose: 100.0 mg/kg/injection, schedule: Q01DX001 (ip), vehicle: saline with Tween-80 99 % of control | dose: 200.0 mg/kg/injection, schedule: Q01DX001 (ip), vehicle: saline with Tween-80 100 % of control | dose: 400.0 mg/kg/injection, schedule: Q01DX001 (ip), vehicle: saline with Tween-80 103 % of control

O=C1CCC2OC3CCC(=O)N3CN12 (centres undefined)
inactive: [8] 97 % of control | [9] 98 % of control | [10] 98 % of control

COc1cccc(/C=N\c2nc(-c3ccccc3Cl)cs2)c1O
inactive: [11] 89 % of control | [12] 94 % of control | dose: 200.0 mg/kg/injection, schedule: Q01DX005 (ip), vehicle: Klucel (hydroxypropylcellulose) (HPC) 105 % of control

NCCSc1nc(-c2ccccc2)c(-c2ccccc2)o1
inactive: [1] 100 % of control | [2] 100 % of control | [3] 101 % of control

CC(C)C(=O)CCC(C)C1CCC2(C)C3CC=C4C(CCC(O)C4(C)C)C3(C)C(=O)CC12C (centres undefined)
inactive: dose: 100.0 mg/kg/injection, schedule: Q04DX002 (ip), vehicle: saline 100 % of control | dose: 200.0 mg/kg/injection, schedule: Q04DX002 (ip), vehicle: saline 98 % of control | dose: 400.0 mg/kg/injection, schedule: Q04DX002 (ip), vehicle: saline 99 % of control

O=C1OC(=O)C2CC=CCC12 (centres undefined)
inactive: [4] 95 % of control | [5] 93 % of control | [6] 100 % of control

CCP(=O)(CC)CC
inactive: dose: 25.0 mg/kg/injection, schedule: Q01DX005 (ip), vehicle: saline 98 % of control | dose: 50.0 mg/kg/injection, schedule: Q01DX005 (ip), vehicle: saline 105 % of control | dose: 100.0 mg/kg/injection, schedule: Q01DX005 (ip), vehicle: saline 99 % of control | dose: 200.0 mg/kg/injection, schedule: Q01DX005 (ip), vehicle: saline 99 % of control | dose: 400.0 mg/kg/injection, schedule: Q01DX005 (ip), vehicle: saline 99 % of control

Cc1ccc(S(=O)(=O)C2(NC(=O)C3CC3)CC2)cc1
inactive: dose: 60.0 mg/kg/injection, schedule: Q01DX005 (ip), vehicle: Klucel (hydroxypropylcellulose) (HPC) 89 % of control | dose: 120.0 mg/kg/injection, schedule: Q01DX005 (ip), vehicle: Klucel (hydroxypropylcellulose) (HPC) 89 % of control

O=C1c2ccccc2C(=O)N1CN1C(=O)c2ccccc2S1(=O)=O
inactive: [11] 93 % of control | [12] 98 % of control

COc1cccc2c1C(=O)c1c(OC)c(CSC(=N)N)cc(OC)c1C2=O
inactive: dose: 2.0 mg/kg/injection, schedule: Q01DX009 (ip), vehicle: water 99 % of control | dose: 4.0 mg/kg/injection, schedule: Q01DX009 (ip), vehicle: water 104 % of control | dose: 8.0 mg/kg/injection, schedule: Q01DX009 (ip), vehicle: water 104 % of control | dose: 16.0 mg/kg/injection, schedule: Q01DX009 (ip), vehicle: water 117 % of control | dose: 32.0 mg/kg/injection, schedule: Q01DX009 (ip), vehicle: water 121 % of control | dose: 64.0 mg/kg/injection, schedule: Q01DX009 (ip), vehicle: water 111 % of control

CN(C)c1ccsc(=S)c1
inactive: dose: 6.25 mg/kg/injection, schedule: Q01DX005 (ip), vehicle: Klucel (hydroxypropylcellulose) (HPC) 102 % of control | dose: 12.5 mg/kg/injection, schedule: Q01DX005 (ip), vehicle: Klucel (hydroxypropylcellulose) (HPC) 101 % of control | dose: 25.0 mg/kg/injection, schedule: Q01DX005 (ip), vehicle: Klucel (hydroxypropylcellulose) (HPC) 105 % of control | [11] 98 % of control

CCCCSc1n[nH]c(C2CCC(=O)N2Cc2ccccc2)n1 (centres undefined)
inactive: [13] 100 % of control | dose: 120.0 mg/kg/injection, schedule: Q01DX005 (ip), vehicle: saline with Tween-80 93 % of control | dose: 240.0 mg/kg/injection, schedule: Q01DX005 (ip), vehicle: saline with Tween-80 91 % of control

C#CCSC1=NS(=O)(=O)c2ccccc21
inactive: dose: 7.5 mg/kg/injection, schedule: Q01DX005 (ip), vehicle: saline with Tween-80 115 % of control | [14] 115 % of control | [15] 98 % of control and 115 % of control | [13] 106 % of control

O=C(O)CCCc1ccc2c(c1)OCO2
inactive: [8] 113 % of control | [9] 98 % of control | [10] 106 % of control

CC(C)=CC(=O)O
inactive: [4] 99 % of control | [5] 101 % of control | [6] 100 % of control | [7] 90 % of control

Cc1ccc(NC(=S)C#N)c(C)c1
inactive: [14] 102 % of control | [15] 98 % of control | [13] 98 % of control and 106 % of control

C/C1=C/C(C)C(O)C(O)C(=O)C2(C)CNC3=C(O2)C(=O)c2c(cc(C)c(O)c2C1=O)C3=O (centres undefined)
inactive: dose: 0.5 mg/kg/injection, schedule: Q01DX009 (ip), vehicle: distilled water + Tween-80 102 % of control and 122 % of control | dose: 1.0 mg/kg/injection, schedule: Q01DX009 (ip), vehicle: distilled water + Tween-80 106 % of control and 117 % of control | dose: 2.0 mg/kg/injection, schedule: Q01DX009 (ip), vehicle: distilled water + Tween-80 108 % of control | dose: 4.0 mg/kg/injection, schedule: Q01DX009 (ip), vehicle: distilled water + Tween-80 102 % of control and 103 % of control | dose: 16.0 mg/kg/injection, schedule: Q01DX009 (ip), vehicle: distilled water + Tween-80 103 % of control and 107 % of control | dose: 32.0 mg/kg/injection, schedule: Q01DX009 (ip), vehicle: distilled water + Tween-80 101 % of control and 103 % of control | dose: 4.0 micrograms/kg/injection, schedule: Q01DX009 (ip), vehicle: water 115 % of control | dose: 8.0 micrograms/kg/injection, schedule: Q01DX009 (ip), vehicle: water 99 % of control | dose: 16.0 micrograms/kg/injection, schedule: Q01DX009 (ip), vehicle: water 98 % of control | dose: 32.0 micrograms/kg/injection, schedule: Q01DX009 (ip), vehicle: water 99 % of control | dose: 64.0 micrograms/kg/injection, schedule: Q01DX009 (ip), vehicle: saline + alcohol 100 % of control | dose: 64.0 micrograms/kg/injection, schedule: Q01DX009 (ip), vehicle: water 102 % of control | dose: 128.0 micrograms/kg/injection, schedule: Q01DX009 (ip), vehicle: saline + alcohol 100 % of control | dose: 256.0 micrograms/kg/injection, schedule: Q01DX009 (ip), vehicle: saline + alcohol 103 % of control
